Here are results for one compound from ChEMBL document CHEMBL4725292 (J Med Chem, 2020).

Each structure is given as a SMILES string. The source made the active and inactive calls. The rule behind the calls is not given here.

Data set [1] deals with T1, Bromodomain-containing protein 2 (Homo sapiens, UniProt P25440). Briefly: Binding affinity to human partial length BRD2 bromodomain 2 isoform 1 (E348 to D455 residues) expressed in bacterial expression system by BROMOscan assay.
The target of data set [2] is T2, Bromodomain testis-specific protein (Homo sapiens, UniProt Q58F21). The data set is described as follows: Binding affinity to full length BRDT BD1 in human HuT78 cell lysates incubated for 45 mins by liquid chromatography-mass spectrometry based chemoproteomic binding assay. In kind it is subcellular.
The target of data set [3] is Transcription initiation factor TFIID subunit 1-like (Homo sapiens, UniProt Q8IZX4). Briefly: Binding affinity to human partial length TAF1L bromodomain 2 (Q1523 to D1654 residues) expressed in bacterial expression system by BROMOscan assay.
A short description of data set [4]: Permeability of the compound in pH 7.4 phosphate buffer measured after 3 hrs by artificial membrane permeability assay based HPLC analysis. In kind it is ADME. Conditions: PAMPA, pH 7.4, read-out: permeability. For orientation: PAMPA measures passive passage across an artificial lipid membrane.
Data set [5] has as its target T3, Bromodomain-containing protein 3 (Homo sapiens, UniProt Q15059). The data set is described as follows: Binding affinity to full length BRD3 BD1 in human HuT78 cell lysates incubated for 45 mins by liquid chromatography-mass spectrometry based chemoproteomic binding assay. In kind it is subcellular.
Data set [6] has as its target Bromodomain adjacent to zinc finger domain protein 2A (Homo sapiens, UniProt Q9UIF9). The data set is described as follows: Binding affinity to human partial length BAZ2A (M1792 to L1905 residues) expressed in bacterial expression system by BROMOscan assay.
Data set [7] has as its target T1, Bromodomain-containing protein 2. The data set is described as follows: Binding affinity to full length BRD2 BD1 in human HuT78 cell lysates incubated for 45 mins by liquid chromatography-mass spectrometry based chemoproteomic binding assay. In kind it is subcellular.
Data set [8] has as its target T4, ATPase family AAA domain-containing protein 2 (Homo sapiens, UniProt Q6PL18).
T4 sequence (Q6PL18 whole entry): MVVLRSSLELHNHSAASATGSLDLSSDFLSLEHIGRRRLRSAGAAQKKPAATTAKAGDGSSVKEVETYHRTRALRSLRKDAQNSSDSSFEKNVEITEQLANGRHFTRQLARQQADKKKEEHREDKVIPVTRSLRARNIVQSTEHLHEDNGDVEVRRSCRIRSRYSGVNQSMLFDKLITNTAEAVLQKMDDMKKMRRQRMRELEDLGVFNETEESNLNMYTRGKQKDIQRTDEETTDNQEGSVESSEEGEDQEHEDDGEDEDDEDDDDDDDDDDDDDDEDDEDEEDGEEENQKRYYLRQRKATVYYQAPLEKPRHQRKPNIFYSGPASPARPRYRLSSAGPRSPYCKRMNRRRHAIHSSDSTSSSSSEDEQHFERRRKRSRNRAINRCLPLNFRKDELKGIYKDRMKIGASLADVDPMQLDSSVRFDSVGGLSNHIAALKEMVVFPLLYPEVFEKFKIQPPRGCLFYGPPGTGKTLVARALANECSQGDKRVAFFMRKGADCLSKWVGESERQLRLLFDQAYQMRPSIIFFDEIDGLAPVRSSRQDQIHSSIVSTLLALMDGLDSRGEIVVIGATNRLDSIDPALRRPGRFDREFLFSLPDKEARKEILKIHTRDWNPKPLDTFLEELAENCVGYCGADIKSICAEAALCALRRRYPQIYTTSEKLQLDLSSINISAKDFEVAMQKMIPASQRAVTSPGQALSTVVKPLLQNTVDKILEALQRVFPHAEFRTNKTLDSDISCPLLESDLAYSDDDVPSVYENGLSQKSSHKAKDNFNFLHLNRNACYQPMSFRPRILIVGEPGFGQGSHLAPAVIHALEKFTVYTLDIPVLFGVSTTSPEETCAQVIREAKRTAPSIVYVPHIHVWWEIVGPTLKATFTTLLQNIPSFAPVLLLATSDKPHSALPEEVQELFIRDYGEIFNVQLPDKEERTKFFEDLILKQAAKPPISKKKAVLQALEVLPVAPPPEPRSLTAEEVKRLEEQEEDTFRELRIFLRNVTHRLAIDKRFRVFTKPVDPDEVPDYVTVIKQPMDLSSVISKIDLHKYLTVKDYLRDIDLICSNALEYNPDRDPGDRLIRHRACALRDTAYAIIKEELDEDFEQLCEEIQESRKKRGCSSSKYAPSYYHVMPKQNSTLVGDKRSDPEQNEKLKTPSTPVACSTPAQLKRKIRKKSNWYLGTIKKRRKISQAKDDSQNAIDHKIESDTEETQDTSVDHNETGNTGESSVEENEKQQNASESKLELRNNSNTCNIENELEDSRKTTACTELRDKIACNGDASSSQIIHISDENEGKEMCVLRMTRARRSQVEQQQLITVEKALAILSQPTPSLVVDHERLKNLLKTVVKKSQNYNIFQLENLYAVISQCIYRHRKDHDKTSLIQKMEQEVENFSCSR
The data set is described as follows: Binding affinity to human partial length ATAD2A (Q981 to R1108 residues) expressed in bacterial expression system by BROMOscan assay.

In data set [9] the target is T1, Bromodomain-containing protein 2. Briefly: Binding affinity to full length BRD2 BD2 in human HuT78 cell lysates incubated for 45 mins by liquid chromatography-mass spectrometry based chemoproteomic binding assay. In kind it is subcellular.
The subject of data set [10] is B cell. The data set is described as follows: Downregulation of Ig-G secretion in human B cells cocultured with human PBMC at 0.37 to 10 uM preincubated for 1 hr followed by anti-IgM and TCR stimulation and measured after 84 hrs by ELISA. In kind it is functional, cell-based. Conditions: dose microM 0.37-10, time 1.0 hrs.
For a further data set, the system named is Blood. The data set is described as follows: Inhibition of LPS-induced IL6 production in human whole blood preincubated for 30 mins followed by LPS addition and measured after overnight incubation by mesoscale assay. In kind it is functional, tissue-based.
In data set [11] the test system is B cell. The data set is described as follows: Downregulation of IL-17F secretion in human B cells cocultured with human PBMC at 0.37 to 10 uM preincubated for 1 hr followed by anti-IgM and TCR stimulation and measured after 84 hrs by ELISA. In kind it is functional, cell-based. Conditions: dose microM 0.37-10, time 1.0 hrs. Background: ELISA stands for enzyme-linked immunosorbent assay.

The nature of data set [12]: Lipophilicity, logD of the compound at pH 7.4 by chromatographic method. In kind it is physicochemical. Conditions: buffer.
Data set [13] concerns the target T2, Bromodomain testis-specific protein. The data set is described as follows: Binding affinity to human partial length BRDT bromodomain 2 (K250 to E382 residues) expressed in bacterial expression system by bromoscan assay.
In data set [14] the target is Transcription initiation factor TFIID subunit 1 (Homo sapiens, UniProt P21675). Briefly: Binding affinity to full length TAF1 in human HuT78 cell lysates incubated for 45 mins by liquid chromatography-mass spectrometry based chemoproteomic binding assay. In kind it is subcellular.
Chain of Transcription initiation factor TFIID subunit 1 (P21675 whole entry): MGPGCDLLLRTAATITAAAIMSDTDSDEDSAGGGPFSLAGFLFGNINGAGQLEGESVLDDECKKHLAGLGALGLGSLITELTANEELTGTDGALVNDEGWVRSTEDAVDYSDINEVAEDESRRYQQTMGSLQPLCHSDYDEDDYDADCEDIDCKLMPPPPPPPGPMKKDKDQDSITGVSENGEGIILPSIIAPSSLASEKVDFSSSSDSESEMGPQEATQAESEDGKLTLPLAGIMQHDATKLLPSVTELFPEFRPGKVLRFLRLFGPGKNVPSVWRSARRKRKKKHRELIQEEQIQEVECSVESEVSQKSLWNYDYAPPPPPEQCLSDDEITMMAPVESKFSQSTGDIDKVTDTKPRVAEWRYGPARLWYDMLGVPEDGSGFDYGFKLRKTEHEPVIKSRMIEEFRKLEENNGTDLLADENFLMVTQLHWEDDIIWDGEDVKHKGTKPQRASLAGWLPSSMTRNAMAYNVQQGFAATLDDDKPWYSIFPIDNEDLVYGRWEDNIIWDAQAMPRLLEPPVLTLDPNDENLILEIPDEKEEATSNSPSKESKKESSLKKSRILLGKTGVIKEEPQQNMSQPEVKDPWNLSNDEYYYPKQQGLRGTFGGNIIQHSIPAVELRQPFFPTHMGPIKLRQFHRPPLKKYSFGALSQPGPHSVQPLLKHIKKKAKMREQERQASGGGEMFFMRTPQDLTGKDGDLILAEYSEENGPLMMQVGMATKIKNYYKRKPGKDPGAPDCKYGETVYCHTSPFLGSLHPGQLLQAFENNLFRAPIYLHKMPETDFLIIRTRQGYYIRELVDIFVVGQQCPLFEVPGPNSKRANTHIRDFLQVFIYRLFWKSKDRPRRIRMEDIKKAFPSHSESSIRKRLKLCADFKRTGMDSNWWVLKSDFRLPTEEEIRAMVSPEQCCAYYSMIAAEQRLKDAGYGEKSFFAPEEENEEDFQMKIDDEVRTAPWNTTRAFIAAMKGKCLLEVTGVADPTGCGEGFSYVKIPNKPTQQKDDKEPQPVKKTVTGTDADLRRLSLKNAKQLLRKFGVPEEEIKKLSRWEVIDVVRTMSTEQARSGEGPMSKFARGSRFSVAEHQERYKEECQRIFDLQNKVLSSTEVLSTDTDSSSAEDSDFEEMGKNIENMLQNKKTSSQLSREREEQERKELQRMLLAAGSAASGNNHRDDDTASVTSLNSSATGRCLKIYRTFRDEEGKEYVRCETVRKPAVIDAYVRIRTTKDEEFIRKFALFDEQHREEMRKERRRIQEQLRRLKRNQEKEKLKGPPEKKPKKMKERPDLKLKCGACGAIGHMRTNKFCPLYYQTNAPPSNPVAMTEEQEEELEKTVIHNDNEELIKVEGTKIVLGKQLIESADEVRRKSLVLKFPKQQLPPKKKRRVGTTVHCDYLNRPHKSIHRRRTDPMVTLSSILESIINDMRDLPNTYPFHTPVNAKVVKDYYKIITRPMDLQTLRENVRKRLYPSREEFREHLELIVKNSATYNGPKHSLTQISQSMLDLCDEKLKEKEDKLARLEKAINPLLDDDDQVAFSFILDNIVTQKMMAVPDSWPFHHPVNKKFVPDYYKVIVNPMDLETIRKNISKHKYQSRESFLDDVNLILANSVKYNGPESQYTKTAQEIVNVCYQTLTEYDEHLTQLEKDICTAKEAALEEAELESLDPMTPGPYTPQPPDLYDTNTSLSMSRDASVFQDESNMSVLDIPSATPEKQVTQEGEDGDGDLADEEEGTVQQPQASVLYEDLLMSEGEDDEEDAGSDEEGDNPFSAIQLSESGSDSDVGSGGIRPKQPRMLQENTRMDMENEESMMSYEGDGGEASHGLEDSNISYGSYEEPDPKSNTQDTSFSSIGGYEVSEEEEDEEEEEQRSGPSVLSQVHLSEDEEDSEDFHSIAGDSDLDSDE
A short description of data set [15]: Inhibition of LPS-induced MCP1 production in PBMC (unknown origin). In kind it is functional, tissue-based.
The target of data set [16] is T2, Bromodomain testis-specific protein. The data set is described as follows: Binding affinity to full length BRDT BD2 in human HuT78 cell lysates incubated for 45 mins by liquid chromatography-mass spectrometry based chemoproteomic binding assay. In kind it is subcellular.
The target in a further data set is Protein polybromo-1 (Homo sapiens, UniProt Q86U86). Briefly: Binding affinity to human partial length PBRM1 bromodomain 5 (S645 to D766 residues) expressed in bacterial expression system by BROMOscan assay.
Chain of Protein polybromo-1 (Q86U86 whole entry, the tested form may be a part): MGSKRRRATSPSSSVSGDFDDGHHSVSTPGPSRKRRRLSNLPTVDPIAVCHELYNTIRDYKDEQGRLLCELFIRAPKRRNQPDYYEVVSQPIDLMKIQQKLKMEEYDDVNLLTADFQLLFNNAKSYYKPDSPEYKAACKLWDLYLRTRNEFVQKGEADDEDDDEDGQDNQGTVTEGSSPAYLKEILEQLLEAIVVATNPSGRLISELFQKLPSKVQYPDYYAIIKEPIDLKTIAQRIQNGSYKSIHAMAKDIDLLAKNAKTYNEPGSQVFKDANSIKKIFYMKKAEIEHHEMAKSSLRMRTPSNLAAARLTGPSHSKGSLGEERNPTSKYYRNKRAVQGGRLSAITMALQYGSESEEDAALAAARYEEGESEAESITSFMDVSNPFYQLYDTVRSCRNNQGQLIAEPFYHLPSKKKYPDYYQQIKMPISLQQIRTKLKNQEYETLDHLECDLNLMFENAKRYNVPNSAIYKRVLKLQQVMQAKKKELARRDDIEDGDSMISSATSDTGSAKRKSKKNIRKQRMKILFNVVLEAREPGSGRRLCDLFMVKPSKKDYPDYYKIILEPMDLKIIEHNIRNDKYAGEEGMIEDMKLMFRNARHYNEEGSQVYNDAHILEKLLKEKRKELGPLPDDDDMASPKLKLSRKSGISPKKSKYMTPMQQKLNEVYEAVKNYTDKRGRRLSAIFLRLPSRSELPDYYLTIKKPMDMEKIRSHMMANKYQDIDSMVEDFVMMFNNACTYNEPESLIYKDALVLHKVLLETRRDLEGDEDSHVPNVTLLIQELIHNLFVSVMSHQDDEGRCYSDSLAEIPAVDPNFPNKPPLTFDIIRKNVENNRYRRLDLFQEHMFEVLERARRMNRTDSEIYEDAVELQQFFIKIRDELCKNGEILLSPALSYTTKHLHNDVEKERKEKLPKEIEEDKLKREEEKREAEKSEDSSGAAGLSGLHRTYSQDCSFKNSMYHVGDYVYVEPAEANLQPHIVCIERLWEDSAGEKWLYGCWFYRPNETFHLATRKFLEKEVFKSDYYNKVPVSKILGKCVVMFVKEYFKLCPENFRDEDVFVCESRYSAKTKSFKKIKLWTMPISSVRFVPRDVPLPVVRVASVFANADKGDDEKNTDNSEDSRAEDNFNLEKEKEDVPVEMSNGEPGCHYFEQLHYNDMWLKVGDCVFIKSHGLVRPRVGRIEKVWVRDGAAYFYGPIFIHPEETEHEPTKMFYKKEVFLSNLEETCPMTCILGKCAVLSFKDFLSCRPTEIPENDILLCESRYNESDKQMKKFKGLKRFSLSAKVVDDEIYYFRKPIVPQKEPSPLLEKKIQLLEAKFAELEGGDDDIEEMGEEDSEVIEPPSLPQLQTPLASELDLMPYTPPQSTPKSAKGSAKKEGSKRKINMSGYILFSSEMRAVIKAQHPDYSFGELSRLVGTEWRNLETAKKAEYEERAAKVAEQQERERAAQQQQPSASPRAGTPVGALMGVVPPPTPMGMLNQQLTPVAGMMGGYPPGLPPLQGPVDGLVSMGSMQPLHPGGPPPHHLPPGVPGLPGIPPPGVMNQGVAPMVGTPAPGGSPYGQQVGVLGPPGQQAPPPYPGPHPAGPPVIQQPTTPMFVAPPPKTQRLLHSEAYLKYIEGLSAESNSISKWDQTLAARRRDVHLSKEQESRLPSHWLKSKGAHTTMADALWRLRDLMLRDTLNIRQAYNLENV
Data set [17] deals with T3, Bromodomain-containing protein 3. The data set is described as follows: Binding affinity to full length BRD3 BD2 in human HuT78 cell lysates incubated for 45 mins by liquid chromatography-mass spectrometry based chemoproteomic binding assay. In kind it is subcellular.
For data set [18] the target is unchanged. Briefly: Binding affinity to human partial length BRD3 bromodomain 2 (G306 to P416 residues) expressed in bacterial expression system by BROMOscan assay.
Data set [19] addresses T2, Bromodomain testis-specific protein. Briefly: Binding affinity to human partial length BRDT bromodomain 1 (N21 to E137 residues) expressed in bacterial expression system by bromoscan assay.

T1 sequence (P25440 whole entry, the tested form may be a part, canonical isoform): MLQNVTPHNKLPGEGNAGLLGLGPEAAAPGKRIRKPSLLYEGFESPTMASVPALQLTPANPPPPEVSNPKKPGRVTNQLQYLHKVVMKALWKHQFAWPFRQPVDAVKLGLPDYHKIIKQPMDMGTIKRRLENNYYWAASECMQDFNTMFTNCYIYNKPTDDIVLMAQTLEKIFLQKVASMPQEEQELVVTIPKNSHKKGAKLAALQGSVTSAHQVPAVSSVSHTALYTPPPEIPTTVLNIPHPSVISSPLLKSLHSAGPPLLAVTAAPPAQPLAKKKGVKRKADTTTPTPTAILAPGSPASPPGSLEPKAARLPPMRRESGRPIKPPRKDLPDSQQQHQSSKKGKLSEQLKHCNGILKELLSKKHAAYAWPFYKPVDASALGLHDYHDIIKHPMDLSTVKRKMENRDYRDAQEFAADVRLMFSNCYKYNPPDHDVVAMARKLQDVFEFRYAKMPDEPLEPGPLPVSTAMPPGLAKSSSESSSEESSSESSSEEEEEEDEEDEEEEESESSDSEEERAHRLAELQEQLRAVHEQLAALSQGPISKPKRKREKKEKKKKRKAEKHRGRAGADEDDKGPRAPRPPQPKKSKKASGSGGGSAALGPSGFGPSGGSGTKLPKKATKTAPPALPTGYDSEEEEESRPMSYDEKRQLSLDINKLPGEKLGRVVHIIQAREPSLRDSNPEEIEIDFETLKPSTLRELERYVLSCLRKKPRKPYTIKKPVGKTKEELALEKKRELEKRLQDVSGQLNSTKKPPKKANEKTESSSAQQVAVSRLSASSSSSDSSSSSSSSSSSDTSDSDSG
T3 sequence (Q15059 whole entry, the tested form may be a part): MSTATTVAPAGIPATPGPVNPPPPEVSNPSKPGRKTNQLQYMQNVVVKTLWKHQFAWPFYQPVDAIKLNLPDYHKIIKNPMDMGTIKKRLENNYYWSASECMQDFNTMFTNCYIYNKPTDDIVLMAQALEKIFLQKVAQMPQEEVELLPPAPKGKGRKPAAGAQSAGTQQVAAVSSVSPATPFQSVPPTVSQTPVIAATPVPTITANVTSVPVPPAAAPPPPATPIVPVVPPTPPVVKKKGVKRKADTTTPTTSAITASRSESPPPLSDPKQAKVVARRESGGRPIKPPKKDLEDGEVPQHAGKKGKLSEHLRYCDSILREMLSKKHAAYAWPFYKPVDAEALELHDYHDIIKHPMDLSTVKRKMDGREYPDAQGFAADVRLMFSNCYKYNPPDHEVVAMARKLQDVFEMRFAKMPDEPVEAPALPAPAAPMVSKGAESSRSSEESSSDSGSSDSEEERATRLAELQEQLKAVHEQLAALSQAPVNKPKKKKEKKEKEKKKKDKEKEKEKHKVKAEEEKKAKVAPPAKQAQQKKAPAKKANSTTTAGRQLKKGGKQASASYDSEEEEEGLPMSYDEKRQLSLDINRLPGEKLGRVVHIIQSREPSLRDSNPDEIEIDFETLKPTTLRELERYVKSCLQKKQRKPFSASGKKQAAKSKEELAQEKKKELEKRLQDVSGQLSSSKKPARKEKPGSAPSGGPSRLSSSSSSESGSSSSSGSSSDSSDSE

With `Cc1cc2c(-c3ccco3)cnc(N[C@@H]3CCN(C)C[C@H]3C(=O)NC3CCCCC3)c2[nH]c1=O` [GSK789], the Kd in [1] was 25.1 µM; in data set [2] it was 0.01 µM; in data set [3], 0.398 µM; in [5], 0.00398 µM; in data set [6], 15.8 µM; in data set [7], 0.00398 µM. Also, the Kd in data set [8] was 15.8 µM; in data set [9] it was greater than 25.1 µM; in [13], 20 µM; in data set [16] it was greater than 31.6 µM; at Protein polybromo-1, 10 µM; in [17] it was 6.31 µM. For the same compound, the Kd in [18] is 20 µM; in [19], 0.02 µM. In addition, in data set [4], the Papp at 3 h worked out at 19 ×10⁻⁶ cm/s. Further, the outcome in the data set on B cell [10] and with B cell [11] was Active. The IC50 in the data set on Blood was 3.55 µM; in data set [14] it was greater than 10 µM; in data set [15], 0.02 µM. Moreover, in data set [12], the chromatographic logD is 3.99.

One may read the Kd as the equilibrium constant for the complex coming apart. As a reminder, the IC50 is the concentration that inhibits the measured activity by half. Low readings indicate greater potency, high ones weaker potency. Usually chromatographic logD stands for lipophilicity estimated from chromatographic retention. The low end stands for a more hydrophilic compound, the high end for a more lipophilic compound.
